Assay results from patent US12077503B2, “Substituted cyclic amides and their use as herbicides” (FMC CORPORATION, priority 2015, dated 2024).

Tests used:
Format in all cases: in vivo
[1] = test system: ragweed (common ragweed, Ambrosia elatior); experiment: Test A postemergence
Summary of the method: (§1)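 Seeds sprayed preemergence with a directed soil spray, or plants at 2 to 10 cm height and one- to two-leaf stage sprayed postemergence, with test chemicals in a non-phytotoxic solvent mixture containing surfactant, in loam soil–sand blend. Injury rated visually against untreated controls after about 10 d in greenhouse, 0 (no effect) to 100 (complete control).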

[2] = test system: pigweed (Amaranthus retroflexus); experiment: Test A postemergence
Summary of the method: as §1

[3] = test system: giant foxtail (Setaria faberii); experiment: Test A postemergence
Summary of the method: as §1

[4] = test system: wheat (Triticum aestivum); experiment: Test A postemergence
Summary of the method: as §1

[5] = test system: ryegrass, Italian (Italian ryegrass, Lolium multiflorum); experiment: Test A postemergence
Summary of the method: as §1

[6] = test system: Galium (catchweed bedstraw, Galium aparine); experiment: Test A postemergence
Summary of the method: as §1

[7] = test system: barnyardgrass (Echinochloa crus-galli); experiment: Test A postemergence
Summary of the method: as §1

[8] = test system: blackgrass (Alopecurus myosuroides); experiment: Test A postemergence
Summary of the method: as §1

corn (Zea mays) = experiment: Test A postemergence
Summary of the method: as §1

Kochia (Kochia scoparia) [9] = experiment: Test A postemergence
Summary of the method: as §1

[10] = test system: ragweed (common ragweed, Ambrosia elatior); experiment: Test A preemergence
Summary of the method: as §1

[11] = test system: pigweed (Amaranthus retroflexus); experiment: Test A preemergence
[12] = test system: giant foxtail (Setaria faberii); experiment: Test A preemergence; conditions: Setaria faberi, pre-emergence, 240 h
Summary of the method: as §1

[13] = test system: ryegrass, Italian (Italian ryegrass, Lolium multiflorum); experiment: Test A preemergence
Summary of the method: as §1

[14] = test system: barnyardgrass (Echinochloa crus-galli); experiment: Test A preemergence; conditions: Echinochloa crus-galli, pre-emergence, 240 h
Summary of the method: as §1

Kochia (Kochia scoparia) [15] = experiment: Test A preemergence
Summary of the method: as §1

[16] = test system: sedge, umbrella (small-flower umbrella sedge, Cyperus difformis); experiment: Test B flooded paddy test; conditions: Cyperus difformis, 250 g ai/ha, Flood; 0 to 100 scale where 0 is no effect and 100 is complete control; read-out: Sedge, Umbrella plant response rating
Summary of the method: (§2)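 Greenhouse paddy pots with 2-leaf stage plants received compound by direct addition to floodwater 3 cm deep, kept at that level. Scored visually at 13–15 d versus controls (0 no effect; 100 complete control).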

rice (Oryra sativa) = experiment: Test B flooded paddy test; conditions: Oryza sativa, 250 g ai/ha, Flood; 0 to 100 scale where 0 is no effect and 100 is complete control; read-out: Rice plant response rating
Summary of the method: as §2

[17] = test system: barnyardgrass (Echinochloa crus-galli); experiment: Test B flooded paddy test; conditions: 250 g ai/ha, Flood; 0 to 100 scale where 0 is no effect and 100 is complete control
Summary of the method: as §2

[18] = test system: ducksalad (Heteranthera limosa); experiment: Test B flooded paddy test; conditions: 250 g ai/ha, Flood; 0 to 100 scale where 0 is no effect and 100 is complete control
Summary of the method: as §2

[19] = 500 g ai/ha, postemergence, visual injury, 0 to 100 scale (0 no effect, 100 complete control), approx. 10 d
[20] = 125 g ai/ha, Postemergence, visual injury after approximately 10 d, 0 to 100 scale where 0 is no effect and 100 is complete control
[21] = 500 g ai/ha, preemergence, visual injury rating about 10 d after treatment, 0 to 100 scale (0 no effect, 100 complete control)

Cc1ccc([C@H]2CN(C)C(=O)[C@@H]2C(=O)Nc2ccccc2[S+](C)[O-])cc1Cl (single isomer, unassigned) [Compound 1016]
Plant response rating, Ragweed [1, 19]: 0 | pest or weed control at 125 g/ha ([1]; Ambrosia artemisiifolia, post-emergence, 240 h, 125 g ai/ha, Postemergence, visual injury after approximately 10 d, 0 to 100 scale where 0 is no effect and 100 is complete control, read-out: Plant response rating, Ragweed): 0% | Plant response rating, Pigweed [2, 19]: 0 | pest or weed control at 125 g/ha ([2]; Amaranthus retroflexus, post-emergence, 240 h, 125 g ai/ha, Postemergence, visual injury after approximately 10 d, 0 to 100 scale where 0 is no effect and 100 is complete control, read-out: Plant response rating, Pigweed): 0% | Plant response rating, Foxtail, Giant [3, 20]: 30 | pest or weed control at 500 g/ha ([3]; Setaria faberi, post-emergence, 240 h, 500 g ai/ha, postemergence, visual injury, 0 to 100 scale (0 no effect, 100 complete control), approx. 10 d, read-out: Plant response rating, Foxtail, Giant): 80% | Plant response rating, Wheat [4, 20]: 0 | Plant response rating, Wheat [4, 19]: 0 | Plant response rating, Ryegrass, Italian [5, 20]: 0 | Plant response rating, Ryegrass, Italian [5, 19]: 0 | Plant response rating, Galium [6, 20]: 0 | Plant response rating, Galium [6, 19]: 0 | Plant response rating, Barnyardgrass [7, 20]: 50 | pest or weed control at 500 g/ha ([7]; Echinochloa crus-galli, post-emergence, 240 h, 500 g ai/ha, postemergence, visual injury, 0 to 100 scale (0 no effect, 100 complete control), approx. 10 d, read-out: Plant response rating, Barnyardgrass): 90% | Plant response rating, Blackgrass [8, 19]: 0 | pest or weed control at 125 g/ha ([8]; Alopecurus myosuroides, post-emergence, 240 h, 125 g ai/ha, Postemergence, visual injury after approximately 10 d, 0 to 100 scale where 0 is no effect and 100 is complete control, read-out: Plant response rating, Blackgrass): 0% | Plant response rating, Corn (corn (Zea mays); [20]): 0 | Plant response rating, Corn (corn (Zea mays); [19]): 0 | Plant response rating, Kochia (Kochia (Kochia scoparia) [9]; [20]): 0 | Plant response rating, Kochia (Kochia (Kochia scoparia) [9]; [19]): 0 | Ragweed plant response rating [10, 21]: 0 | pest or weed control at 125 g/ha ([10]; Ambrosia artemisiifolia, pre-emergence, 240 h, 125 g ai/ha, Preemergence, visual injury rating after approximately 10 d, read-out: Ragweed plant response rating (0 to 100 scale, 0 is no effect, 100 is complete control)): 0% | Pigweed plant response rating (0 to 100 scale, 0 is no effect, 100 is complete control) ([11]; 125 g ai/ha, Preemergence, visual injury rating after approximately 10 d): 0 | Pigweed plant response rating [11, 21]: 0 | pest or weed control at 125 g/ha ([12]; 125 g ai/ha, Preemergence, visual injury rating after approximately 10 d, read-out: Foxtail, Giant plant response rating (0 to 100 scale, 0 is no effect, 100 is complete control)): 90% | pest or weed control at 500 g/ha ([12]; 500 g ai/ha, preemergence, visual injury rating about 10 d after treatment, 0 to 100 scale (0 no effect, 100 complete control), read-out: Foxtail, Giant plant response rating): 90% | Ryegrass, Italian plant response rating [13, 21]: 0 | pest or weed control at 125 g/ha ([13]; Lolium multiflorum, pre-emergence, 240 h, 125 g ai/ha, Preemergence, visual injury rating after approximately 10 d, read-out: Ryegrass, Italian plant response rating (0 to 100 scale, 0 is no effect, 100 is complete control)): 0% | pest or weed control at 125 g/ha ([14]; 125 g ai/ha, Preemergence, visual injury rating after approximately 10 d, read-out: Barnyardgrass plant response rating (0 to 100 scale, 0 is no effect, 100 is complete control)): 90% | pest or weed control at 500 g/ha ([14]; 500 g ai/ha, preemergence, visual injury rating about 10 d after treatment, 0 to 100 scale (0 no effect, 100 complete control), read-out: Barnyardgrass plant response rating): 90% | Kochia plant response rating (Kochia (Kochia scoparia) [15]; [21]): 0 | pest or weed control at 125 g/ha (Kochia (Kochia scoparia) [15]; Bassia scoparia, pre-emergence, 240 h, 125 g ai/ha, Preemergence, visual injury rating after approximately 10 d, read-out: Kochia plant response rating (0 to 100 scale, 0 is no effect, 100 is complete control)): 0% | pest or weed control at 250 g/ha [16]: 0% | pest or weed control at 250 g/ha (rice (Oryra sativa)): 30% | Barnyardgrass plant response rating [17]: 0 | Ducksalad plant response rating [18]: 0
